# Measurements published in US8822526B2, “Synergistic pharmaceutical combination for the treatment of cancer” (Piramal Enterprises Limited, priority 2007, dated 2014).
# How the values were obtained:
# [1] = tested on: human non-small cell lung carcinoma H-460 cells; assay: In vitro cytotoxicity assay (MTS); conditions: for % Cytotoxicity: then complete medium 45 hours
# Description: The cytotoxicity assay used was MTS (3-(4,5-dimethylthiazol-2-yl)-5-(3-carboxymethoxyphenyl)-2-(4-sulfophenyl)-2H-tetrazolium, inner salt) assay. The human non-small cell lung carcinoma H-460 cells were seeded at a density of 1500 cells/well in 180 μL of culture medium in 96-well plate and incubated overnight to allow the cells to adhere. Varying concentrations of the drugs contained in the combination were added to the wells and incubated for an appropriate period of time in humidified 5% CO2 incubator at 37° C. in case of a single drug exposure. […] Control wells were treated with a vehicle. At the end of the incubation period, the medium was removed from the wells and 20 μL of MTS (2 mg/mL in phosphate buffer saline, pH 6-6.5 and filter sterilized) and 1 μL of phenazine methosulfate (PMS, 3 mM in phosphate buffered saline, pH 7.3 and filter sterilized) was added to each well and the total volume was adjusted to 200 μL with complete medium. The plate was incubated for 2-4 hours in humidified 5% CO2 incubator at 37° C.
# (§1) After completion of the drugs treatment i.e. at the end of 96 hours the plates were processed for MTS viability assay and the percent cytotoxicity was calculated as compared to control.
# as §1
# (§2) The human non-small cell lung carcinoma H-460 cells were seeded at a density of 1500 cells/well. […] After completion of the drugs treatment i.e. at the end of 120 hours the plates were processed for MTS viability assay and the percent cytotoxicity was calculated as compared to control.
# as §2
# The human non-small cell lung carcinoma H-460 cells were seeded at a density of 1500 cells/well. […] After completion of the drugs treatment i.e. at the end of 120 hours, the plates were processed for MTS viability assay and the percent cytotoxicity was calculated as compared to control.
# (§3) After completion of the drugs treatment i.e. at the end of 48 hours the plates were processed for MTS viability assay and the percent cytotoxicity was calculated as compared to control.
# The plates were processed for MTS viability assay and the percent cytotoxicity was calculated as compared to control.
# as §3
# The human non-small cell lung carcinoma H-460 cells were seeded at a density of 1500 cells/well. As per Table 16A the cells were first treated with either of the drugs alone i.e. with doxorubicin or flavopiridol alone. Doxorubicin treatment was for the first 24 hours followed by complete medium for 96 hours while in case of flavopiridol, the first 24 hours was in complete medium followed by flavopiridol for the next 96 hours. […] After completion of the drugs treatment i.e. at the end of 120 hours the plates were processed for MTS viability assay and the percent cytotoxicity was calculated as compared to control.
# As per Table 16B the cells were first treated with either of the drugs alone i.e. with doxorubicin or flavopiridol alone. Flavopiridol treatment was for the first 96 hours followed by complete medium for 24 hours while in case of doxorubicin, the first 96 hours was in complete medium followed by doxorubicin for 24 hours. […] After completion of the drugs treatment i.e. at the end of 120 hours, the plates were processed for MTS viability assay and the percent cytotoxicity was calculated as compared to control.
# The human non-small cell lung carcinoma H-460 cells were seeded at a density of 1500 cells/well.
# [2] = tested on: pancreatic cells (Panc-1); assay: Analysis of cell cycle distribution and flow cytometry (sub G1 apoptosis); type: cell-based, human; conditions: FIG. 3: 70 nM gemcitabine alone (24 hours); 300 nM compound A alone (72 hours); combination 70 nM gemcitabine (24 hours) followed by 300 nM compound A (72 hours)
# [3] = tested on: human pancreatic (Panc-1) cell line; assay: In vitro cytotoxicity assay (MTS); type: cell-based; conditions: then complete medium 72 hours
smiles,measurement,setting,value
CC(=O)O[C@@]12CO[C@@H]1C[C@H](O)[C@@]1(C)C(=O)[C@H](O)C3=C(C)[C@@H](OC(=O)[C@H](O)[C@@H](NC(=O)OC(C)(C)C)c4ccccc4)C[C@@](O)([C@@H](OC(=O)c4ccccc4)[C@H]21)C3(C)C [Docetaxel],% Cytotoxicity,"[1]; Docetaxel 0.1 nM first 3 hours, 3000 cells/well",0%
same,% Cytotoxicity,"[1]; Docetaxel 3 nM first 3 hours, 3000 cells/well",2%
CN1CC[C@H](c2c(O)cc(O)c3c(=O)cc(-c4ccccc4Cl)oc23)[C@H](O)C1 [Flavopiridol],IC30 concentration after 48 hours treatment,"[1]; H-460 cells, 48 hours treatment",200 nM
same,IC50,"[1]; Homo sapiens, NCI-H460, 48 h, read-out: IC50 concentration after 48 hours treatment, H-460 cells, 48 hours treatment",350 nM
same,cytotoxicity at 0.2 µM,"[1]; Homo sapiens, NCI-H460, 120 h, Flavopiridol 200 nM alone for 120 hours",39%
same,cytotoxicity at 0.35 µM,"[1]; Homo sapiens, NCI-H460, 120 h, Flavopiridol 350 nM alone for 120 hours",81%
"Nc1ccn([C@@H]2O[C@H](CO)[C@@H](O)C2(F)F)c(=O)n1 [Gemcitabine, 2′-deoxy-2′,2′-difluorocytidine]",apoptosis (sub G1 phase),[2],1.7%
same,% Cytotoxicity,[3]; Gemcitabine 30 nM first 24 hours,2%
same,% Cytotoxicity,[3]; Gemcitabine 70 nM first 24 hours,18%
same,% Cytotoxicity,[3]; Gemcitabine 100 nM first 24 hours,38%
same,% Cytotoxicity,[3]; Gemcitabine 200 nM first 24 hours,78%
CC(=O)O[C@H]1C(=O)[C@@]2(C)[C@H]([C@H](OC(=O)c3ccccc3)[C@]3(O)C[C@H](OC(=O)[C@H](O)[C@@H](NC(=O)c4ccccc4)c4ccccc4)C(C)=C1C3(C)C)[C@]1(OC(C)=O)CO[C@@H]1C[C@@H]2O [Paclitaxel],% Cytotoxicity,"[1]; Paclitaxel 10 nM first 3 hours, 1500 cells/well",10%
